Values joined by “and” are separate entries in the source; they are usually repeats but may differ in a detail not shown here. Equal values may be shown once. Each block holds one molecule with its values, some of them ahead of it.
Assays:
Aedes aegypti = details: 0.5 mg/cm^2 on the skin of man; cited from earlier work
Vapor pressure = assay type: physicochemical; details: at 125° C., estimated or extrapolated from literature values
Aedes aegypti mosquitoes [1] = details: 0.31 mg/cm^2; cited from earlier work
Aedes aegypti mosquitoes [2] = assay: Mosquito repellency on gauze or polyester film (olfactometer); assay type: in vivo; details: cotton gauze or polyester film, 0.3 mg/cm^2, 3 minutes after application
Excerpt: Olfactometer: A Fiensod and […] olfactometer, as modified by Bowen and Davis, measured the host-oriented flight response of female mosquitoes to volatile host emanations (Feinsod, F. M., and […]; An olfactometer for measuring host-seeking behavior of female Aedes aegypti (Diptera: Culicidae); J. Med. Entomol., 15: 282-285, 1979). The olfactometer (approximately 38 cm high) consisted of an upper and lower screened chamber with a closure between the chambers (FIG. 8). A fan placed above the upper chamber drew air through the apparatus at approximately 0.2 m/s. A temperature and humidity controlled chamber (5' wide by 6' long by 8' high) was constructed to house the test subject and the olfactometer. Rearing of Mosquitoes: A second environmental chamber, maintained at 27° C. and 80% humidity, was dedicated to the rearing of Aedes aegypti mosquitoes. […] Assays for Attraction of Mosquitoes to Human Subjects: A group of 30 volunteers, consisting of 14 females and 16 males and ranging in age from 24 to 68 years, was selected from the surrounding civilian population. Individuals were tested for their ability to attract Aedes aegypti mosquitoes contained in the olfactometer. Tests were conducted at a temperature of 27° C. and 50% relative humidity. […] A small fan was placed on top of the upper chamber to cause an air flow from the lower chamber to the upper chamber. A trial began when the closure between the upper and lower chamber was opened in the absence of a human host. […] This trial was repeated twice during a test session to obtain three replicates. Two additional test sessions, at time intervals of at least 1 week, were conducted to obtain at least 8-9 replicates for each of 24 subjects. Of the remaining 6 subjects, 3 were tested on two separate occasions for a total of 6 replicates per subject; 3 were tested on one occasion for a total of 3 replicates per subject. A total of 254 tests were conducted. Test compounds were dissolved in acetone or ethanol at a concentration of 150 mg/5 cc. Ethanol solutions of carboxylic acids were prepared just prior to use. Five hundred microliters of these solutions were applied to a 50 cm^2 circular area of a single layer of cotton gauze (Curity Curad gauze, Futuro Inc., Milford, Ohio) or nonwoven polyester film ([…], Inc.). The resultant dose was 0.3 mg/cm^2. […] The cup was attached to the bottom of the olfactometer (FIG. 8) so that air flowed through the stainless steel screen of the cup, through the treated gauze or film, and through the olfactometer. A volunteer's forearm was placed under the cup, so that air drawn into the cup and olfactometer was laden with human skin emanations. Tests were conducted as described in the preceding paragraph, “Assays for attraction of mosquitoes to human subjects”. Percent repellency was determined from the fraction of mosquitoes entering the lower chamber over a seven minute period. This assay is an approximate measure of the intrinsic repellency of a compound. Good repellency in this test is a necessary, but not sufficient, condition for good repellency on skin. Mosquito repellents must produce a vapor over the skin surface to confuse the host seeking behavior of the insect. However, volatilization must not be so great that the repellent action rapidly dissipates. Since volatilization from the skin will be different from an inanimate surface, skin tests are necessary to confirm that a compound will be a practical repellent.

Ionization at skin pH = assay type: physicochemical; details: pH = pKa of the acids
Excerpt: Naturally occurring fatty acids contain both polar (carboxylic acid group) and non-polar (alkyl chain) regions in their structure and the lower molecular weight homologs are sufficiently volatile to evaporate from the skin surface. Individually, these compounds have repellent activity. A number of these compounds were applied to non-absorptive gauze mounted between the human forearm and the olfactometer containing mosquitoes. These tests were done immediately after application to minimize losses due to evaporation (described fully in “Example 2” below). Because skin absorption and evaporative loss is minimized, this test can be regarded as a measure of the potency of the compounds. Homologs containing 8 to 11 carbon atoms had similar potency (percent repellency), which was greater than that of DEET (FIG. 3). Six carbon homologs and twelve carbon homologs had potency equal to or less than DEET. […] Percent repellency dropped dramatically with increasing numbers of carbon atoms in the molecule (FIG. 4). […] The nonanoic acid was preferably saturated. 4MOCTAN had the best overall performance at the zero and two hour time points. It should be noted for FIGS. 4 and 5 that the carboxylic acids exist on the skin at a pH which ionizes 50% of the molecules (pH=pKa of the acids). Since the ionized species are not volatile, the actual available dose is approximately 50% of that for DEET.

Thermal stability = assay type: physicochemical
Aedes aegypti mosquitoes [3] = assay: Mosquito repellency on skin (olfactometer, human forearm); assay type: in vivo
Aedes aegypti mosquitoes [4] = assay: as above; assay type: in vivo; details: for Percent Repellency 2 h: 0.3 mg/cm^2, 2 h after application; for Percent Repellency 0 h: 0.3 mg/cm^2, 0 h after application
Excerpt: Olfactometer: A Fiensod and Spielman olfactometer, as modified by Bowen and Davis, measured the host-oriented flight response of female mosquitoes to volatile host emanations (Feinsod, F. M., and A. Spielman; An olfactometer for measuring host-seeking behavior of female Aedes aegypti (Diptera: Culicidae); J. Med. Entomol., 15: 282-285, 1979). The olfactometer (approximately 38 cm high) consisted of an upper and lower screened chamber with a closure between the chambers (FIG. 8). A fan placed above the upper chamber drew air through the apparatus at approximately 0.2 m/s. A temperature and humidity controlled chamber (5′ wide by 6′ long by 8′ high) was constructed to house the test subject and the olfactometer.
Rearing of Mosquitoes: A second environmental chamber, maintained at 27° C. and 80% humidity, was dedicated to the rearing of Aedes aegypti mosquitoes. Routine shipments of eggs (American Biological Supply, Gainesville, Fla.) were used to maintain a continuous supply of adult 5-10 day old mosquitoes.
Assays for Attraction of Mosquitoes to Human Subjects: A group of 30 volunteers, consisting of 14 females and 16 males and ranging in age from 24 to 68 years, was selected from the surrounding civilian population. Individuals were tested for their ability to attract Aedes aegypti mosquitoes contained in the olfactometer. Tests were conducted at a temperature of 27° C. and 50% relative humidity. For each trial 15 avid adult female Aedes aegypti mosquitoes (5-10 days post-emergence) were placed in the upper chamber. A small fan was placed on top of the upper chamber to cause an air flow from the lower chamber to the upper chamber. A trial began when the closure between the upper and lower chamber was opened in the absence of a human host. The number of mosquitoes entering the lower chamber within a 3 minute period was recorded. The volunteer then placed his or her arm beneath the lower chamber and the number of mosquitoes flying from the upper chamber to the lower chamber was recorded for the time intervals 0-1, 1-3, 3-5 and 5-7 minutes. This trial was repeated twice during a test session to obtain three replicates. Two additional test sessions, at time intervals of at least 1 week, were conducted to obtain at least 8-9 replicates for each of 24 subjects. Of the remaining 6 subjects, 3 were tested on two separate occasions for a total of 6 replicates per subject; 3 were tested on one occasion for a total of 3 replicates per subject. A total of 254 tests were conducted.
Test compounds were dissolved in acetone or ethanol at a concentration of 300 mg/5 cc. Ethanol solutions of carboxylic acids were prepared just prior to use. Three hundred and fifty microliters of these solutions were applied to a 70 cm^2 rectangular area of the forearm. The resultant dose was 0.3 mg/cm^2. The repellent treated area was allowed to dry for 5 minutes prior to test. The treated skin area was placed under the olfactometer and tests were conducted as described in the preceding paragraph, “Assays for attraction of mosquitoes to human subjects”. Percent repellency was determined from the fraction of mosquitoes entering the lower chamber over a seven minute period.
A commercial formulation of DEET (Skintastic, S. C. Johnson, Racine,) was applied to a 100 cm^2 area on the forearm of 1 volunteer (subject 02) to give a dose of 0.3 mg/cm^2 of DEET. A formulation of C8C9C10 (5% octanoic, 5% nonanoic, 5% decanoic in Dow Corning 345 volatile silicone fluid) was applied to a 100 cm^2 on the subject's other arm to give a dose of 0.3 mg/cm^2 total acids. Application sites were placed under the olfactometer at 1, 2 and 4 hours after treatment. Untreated areas on each arm were placed under the olfactometer at the completion of the treated area tests to check the avidity of the mosquitoes. Tests were done on four separate test days. […]

mosquitoes [5] = details: Hill et al. 1979; cited from earlier work
[6] = tested on: yellow fever mosquito (Aedes aegypti (L.)); details: human skin, approximately 2 mg/cm^2, time until two bites; DEET from Gilbert 1957; cited from earlier work
mosquitoes [7] = details: under laboratory conditions; cited from earlier work
[8] = at 125° C., literature values; cited from earlier work
[9] = on skin, listed as N,N-Diethyl-m-toluamide

Vol. (vapor pressure), (est) (Vapor pressure): 2.4 (est) mm Hg
Compound: CCCCCCCC=CC(=O)O [2-Decenoic acid]
Protection Time (Aedes aegypti): 6 ± 4 h
Protection time against Aedes aegypti mosquitoes (Aedes aegypti mosquitoes [1]): <15 min

Vol. (vapor pressure), (est) (Vapor pressure): 6 (est) mm Hg
fraction ionized at skin pH (Ionization at skin pH): about 50%
Thermal stability (Thermal stability): thermally unstable
Compound: CCCCC(C)CCC(=O)O (centres unmarked) [4-Methyloctanoic acid]
pest or weed control at 0.3 mg/cm2 (Aedes aegypti mosquitoes [2]; Aedes aegypti, 0.05 h, read-out: Percent Repellency): 88 ± 18%
repellency over a 4 hour period compared to DEET (Aedes aegypti mosquitoes [3]; 0.6 mg/cm^2 versus 0.3 mg/cm^2 DEET, FIG. 6): nearly equal to that of DEET
Percent Repellency 2 h (Aedes aegypti mosquitoes [3]; on skin, 0.6 mg/cm^2, 2 h after application): 79 ± 21 (2) %
Percent Repellency 4 h (Aedes aegypti mosquitoes [3]; on skin, 0.6 mg/cm^2, 4 h after application): 67 ± 9%
repellency immediately after application to skin, compared to DEET (Aedes aegypti mosquitoes [4]; FIG. 4): comparable to DEET
repellency two hours after skin application, ranking (Aedes aegypti mosquitoes [4]; FIG. 5): highest repellency
Percent Repellency 2 h (Aedes aegypti mosquitoes [4]; on skin): 66 (1) %

Compound: CCN(CC)C(=O)c1cccc(C)c1 [DEET, N,N,-diethyl-m-toluamide, reference compound]
Percent Repellency (Aedes aegypti mosquitoes [2]): 74%
Percent Repellency (Aedes aegypti mosquitoes [2]; listed as N,N-Diethyl-m-toluamide): 74 ± 12%
Protection Time (Aedes aegypti): 8 ± 2 h
Protection time against Aedes aegypti mosquitoes (Aedes aegypti mosquitoes [1]): 330 min
protects against mosquitoes for (mosquitoes [5]): 5 to 6 h
Protection time against yellow fever mosquitoes [6]: 363 min^b
Percent Repellency 0 h (Aedes aegypti mosquitoes [4]; on skin): 95% and 95 ± 6%
Percent Repellency 0 h (Aedes aegypti mosquitoes [4]; [9]): 95 ± 6 (3) %
Percent Repellency 2 h (Aedes aegypti mosquitoes [4]; on skin): 89% and 89 ± 10%
Percent Repellency 2 h (Aedes aegypti mosquitoes [4]; [9]): 89 ± 10 (3) %
Percent Repellency 4 h (Aedes aegypti mosquitoes [4]; on skin, 0.3 mg/cm^2, 4 h after application): 83 ± 9%
hours of protection (mosquitoes [7]): 5 to 7 h

Compound: CCCCCC(=O)O [Hexanoic acid]
Vol. (vapor pressure) [8]: 39.6 mm Hg

— patent US6953814B2, “Natural insect repellant” (Stratacor, Inc., priority 1997, dated 2005)
